# From paper PMC7282810, “Existence and functions of a kisspeptin neuropeptide signaling system in a non-chordate deuterostome species” (eLife, 2020)
# “Also recorded” adds a separate entry of the source. Bridges are numbered along the chain shown (N, C = ends). Where no end group is shown, it is not given here.
# T1: AjKissR1 (Apostichopus japonicus, UniProt A0A5B7LK60)
# T1 sequence (A0A5B7LK60 1-378): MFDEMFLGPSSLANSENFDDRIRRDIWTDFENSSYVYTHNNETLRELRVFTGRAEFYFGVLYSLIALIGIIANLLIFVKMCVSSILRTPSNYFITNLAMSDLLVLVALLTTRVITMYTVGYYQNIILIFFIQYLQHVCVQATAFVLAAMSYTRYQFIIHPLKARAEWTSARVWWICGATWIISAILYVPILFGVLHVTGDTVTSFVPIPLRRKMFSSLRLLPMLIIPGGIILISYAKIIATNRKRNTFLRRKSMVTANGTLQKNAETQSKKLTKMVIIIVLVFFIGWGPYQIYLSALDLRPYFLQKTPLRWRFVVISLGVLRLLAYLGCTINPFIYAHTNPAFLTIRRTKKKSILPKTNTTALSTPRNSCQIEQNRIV
# T2: AjKissR2 (Apostichopus japonicus, UniProt A0A5B7LIE4)
# T2 sequence (A0A5B7LIE4 1-327): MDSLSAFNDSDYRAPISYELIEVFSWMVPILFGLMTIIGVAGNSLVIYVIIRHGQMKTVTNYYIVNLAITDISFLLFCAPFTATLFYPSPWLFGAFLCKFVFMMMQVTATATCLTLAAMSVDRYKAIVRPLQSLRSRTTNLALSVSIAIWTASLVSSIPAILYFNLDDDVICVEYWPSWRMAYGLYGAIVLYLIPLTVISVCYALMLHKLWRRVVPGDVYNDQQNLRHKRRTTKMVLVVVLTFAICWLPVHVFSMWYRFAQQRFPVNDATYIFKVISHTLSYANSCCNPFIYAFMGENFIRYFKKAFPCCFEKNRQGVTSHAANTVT
# T3: FLAG–AjKissR1 (Apostichopus japonicus)
# T3 chain: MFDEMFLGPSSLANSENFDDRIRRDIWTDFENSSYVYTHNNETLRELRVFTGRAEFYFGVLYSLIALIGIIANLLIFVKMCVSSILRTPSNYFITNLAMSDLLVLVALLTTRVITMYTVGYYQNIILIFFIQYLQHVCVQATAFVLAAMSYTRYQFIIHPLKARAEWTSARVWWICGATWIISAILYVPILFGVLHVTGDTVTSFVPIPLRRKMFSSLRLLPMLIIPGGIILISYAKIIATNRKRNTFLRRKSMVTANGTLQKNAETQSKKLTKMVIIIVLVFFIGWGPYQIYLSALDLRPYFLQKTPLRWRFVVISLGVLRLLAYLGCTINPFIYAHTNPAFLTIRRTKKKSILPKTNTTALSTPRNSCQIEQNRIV
# How the values were obtained:
# AjKissR1 [1] = molecular target: T1, AjKissR1; assay: cell-based; assay type: cell-based; conditions: for Potency in triggering intracellular Ca2+ mobilization via AjKissR1 (in words): HEK293, Fura-2/AM, vertebrate kisspeptins and FITC-AjKiss1a at 1.0 μM
# Procedure: (§1) The fluorescent Ca^2+ indicator Fura-2/AM was used to detect intracellular calcium flux ([Li et al., 2010]). Briefly, the HEK293 cells expressing the AjKissR1, AjKissR2 or vertebrate kisspeptin receptor were washed twice with PBS and suspended at 5 × 10^6 cells/mL in Hanks’ balanced salt solution. The cells were then loaded with 3.0 μM Fura-2/AM for 30 min and washed twice in Hanks’ solution. They were then stimulated with the indicated concentrations of different predicted A. japonicus kisspeptins or vertebrate kisspeptins. Finally, intracellular calcium flux was measured for 60 s, by determining the ratio of excitation wavelengths at 340 and 380 nm using a fluorescence spectrometer (Infinite 200 PRO, Tecan, Männedorf, Switzerland). All of the experiments for measuring Ca^2+ mobilization were repeated independently at least three times.
# AjKissR2 [2] = molecular target: T2, AjKissR2; assay: cell-based; assay type: cell-based; conditions: for Potency in triggering intracellular Ca2+ mobilization via AjKissR2 (in words): HEK293, Fura-2/AM, vertebrate kisspeptins and FITC-AjKiss1a at 1.0 μM
# Procedure: as §1
# AjKissR1 [3] = molecular target: T1, AjKissR1; assay: ERK1/2 phosphorylation (western blot) in HEK293 cells expressing FLAG-AjKissR1; assay type: cell-based; conditions: different concentrations for 5 min, immunoblot quantification, Figure 6A
# Procedure: (§2) To examine the phosphorylation of ERK, cells that expressed AjKissr1/2 or other GPR54s were incubated for the indicated times with different concentrations of kisspeptins. Subsequently, cells were lysed with lysis buffer (Beyotime) that contained protease inhibitor (Roche) at 4°C for 30 min on a rocker and then scraped. Proteins were then electrophoresed on a 10% SDS polyacrylamide gel and transferred to polyvinylidene difluoride (PVDF) membranes. Membranes were blocked with 5% skimmed milk, then probed with rabbit anti-phospho-ERK1/2(Thr^202/Tyr^204) antibody (1:2000; Cell Signaling Technology), followed by detection using HRP-conjugated goat anti-rabbit IgG (Beyotime). Blots were stripped and reprobed using anti-ERK1/2 antibody (1:2000; Cell Signaling Technology) as a control for protein loading.
# (§3) Immunoreactive bands were detected with an enhanced chemiluminescent substrate (Beyotime), and the membrane was scanned using a Tanon 5200 Chemiluminescent Imaging System (Tanon Science and Technology, Shanghai, China).
# AjKissR2 [4] = molecular target: T2, AjKissR2; assay: ERK1/2 phosphorylation (western blot) in HEK293 cells expressing FLAG-AjKissR2; assay type: cell-based; conditions: different concentrations for 5 min, immunoblot quantification, Figure 6A
# Procedure: as §2, §3
# [5] = molecular target: FLAG–AjKissR2 (Apostichopus japonicus); assay: flow cytometry on cells; ligand competition: 1.0 uM FITC-AjKiss1a with unlabeled kisspeptins at the indicated concentrations on HEK293 cells expressing FLAG-AjKissR1 or FLAG-AjKissR2; on ice 60-90 min; PBS with 0.2% BSA; FITC fluorescence as percentage of total binding
# FLAG–AjKissR1 = molecular target: T3, FLAG–AjKissR1; assay: competition with 1.0 uM FITC-AjKiss1a
# [6] = 100 nM AjKiss1a or AjKiss1b, pre-treated 12 hr PTX 100 ng/mL, or 1 hr FR900359 1.0 μM, U73122 10 μM, BAPTA-AM 100.0 μM, EGTA 5.0 mM
Molecule,Potency in triggering intracellular Ca2+ mobilization via AjKissR1 (in words) (AjKissR1 [1]),Potency in triggering intracellular Ca2+ mobilization via AjKissR2 (in words) (AjKissR2 [2]),other results
"AHYRTLPF-NH2 [AjKiss1a-10, truncated peptide of AjKiss1a]",failed to activate,failed to activate,
"YNLNSFGLRY-NH2 [DrKiss1-10, synthetic zebrafish kisspeptin decapeptide, reference compound]",much lower potency; also recorded: potent,higher potency than that of HsKiss1-10; also recorded: potent,
"FNYNPFGLRF-NH2 [DrKiss2-10, synthetic zebrafish kisspeptin decapeptide, reference compound]",much lower potency; also recorded: potent,higher potency than that of HsKiss1-10; also recorded: potent,
"YNVNSFGLRF-NH2 [XtKiss1b-10, synthetic frog kisspeptin decapeptide, reference compound]",higher potency; also recorded: potent,higher potency than that of HsKiss1-10; also recorded: potent,
SRARPPLLPF-NH2 [AjKiss1b-10],,,EC50 (AjKissR1 [1]): 1.71 nM; EC50 (AjKissR2 [2]): 27.3 nM; EC50 (AjKissR1 [3]): 31.6 nM; EC50 (AjKissR2 [4]): 98.7 nM
FITC–AGSLDc < CLEASC > EDVERRGRQPNRNAHYRTLPF-NH2 (disulfide) [FITC–AjKiss1a],comparable to that induced by the wild-type neuropeptide,comparable to that induced by the wild-type neuropeptide,
"CC(=O)OCOC(=O)CN(CC(=O)OCOC(C)=O)c1ccccc1OCCOc1ccccc1N(CC(=O)OCOC(C)=O)CC(=O)OCOC(C)=O [BAPTA-AM, 1,2-bis(o-aminophenoxy)ethane N,N,N',N'-tetraacetic acid acetoxymethyl ester, reference compound]",,,Effect of inhibitor pre-treatment on AjKiss1a/AjKiss1b-elicited Ca2+ mobilization (in words) (AjKissR1 [1]; [6]): significantly attenuated; Effect of inhibitor pre-treatment on AjKiss1a/AjKiss1b-elicited Ca2+ mobilization (in words) (AjKissR2 [2]; [6]): significantly attenuated
AGSLDCLEASCEDVERRGRQPNRNAHYRTLPF-NH2 (disulfide 6-11; N-terminus assumed; SMILES CC(C)C[C@H](NC(=O)[C@H](CO)NC(=O)CNC(=O)[C@H](C)N)C(=O)N[C@@H](CC(=O)O)C(=O)N[C@H]1CSSC[C@@H](C(=O)N[C@@H](CCC(=O)O)C(=O)N[C@@H](CC(=O)O)C(=O)N[C@H](C(=O)N[C@@H](CCC(=O)O)C(=O)N[C@@H](CCCNC(=N)N)C(=O)N[C@@H](CCCNC(=N)N)C(=O)NCC(=O)N[C@@H](CCCNC(=N)N)C(=O)N[C@@H](CCC(N)=O)C(=O)N2CCC[C@H]2C(=O)N[C@@H](CC(N)=O)C(=O)N[C@@H](CCCNC(=N)N)C(=O)N[C@@H](CC(N)=O)C(=O)N[C@@H](C)C(=O)N[C@@H](Cc2c[nH]cn2)C(=O)N[C@@H](Cc2ccc(O)cc2)C(=O)N[C@@H](CCCNC(=N)N)C(=O)N[C@H](C(=O)N[C@@H](CC(C)C)C(=O)N2CCC[C@H]2C(=O)N[C@@H](Cc2ccccc2)C(N)=O)[C@@H](C)O)C(C)C)NC(=O)[C@H](CO)NC(=O)[C@H](C)NC(=O)[C@H](CCC(=O)O)NC(=O)[C@H](CC(C)C)NC1=O) [AjKiss1a (C-terminal amidated)],,,IC50 [5]: 95.2 nM; IC50 (FLAG–AjKissR1): 568 nM
